Measured values taken from patent publication US20220389013A1, “PYRIDOPYRIMIDINONE COMPOUNDS AND APPLICATIONS THEREOF” (BeBetter Med Inc., priority 2020, published 2022).
Where two headings read alike, the source gives them in different places.

Legend:
Caco-2 cell = Caco-2 cell transmembrane transport experiment; settings: 10 μM, pH 7.4, 37° C., 90 min
From the text: (§3) In this experiment, a monolayer of Caco-2 cells was used to assess drug penetration. […] The apparent permeability coefficient from apical to basolateral (Papp A-B) and the basolateral to apical permeability coefficient (Papp B-A) of compounds represent the ability of the compound to be transported in both directions, respectively.
(§4) Apparent permeability coefficient (Papp)=(the volume of the receiver chamber/the filter surface area×culture time))×(the drug concentration of receiver chamber at the end of culture/(the drug concentration of donor chamber at the initial culture×dilution factor)
(§5) In this experiment, Millipore cell culture plates (PSHT 010 R5): membrane area=0.7 cm^2, recipient side volume=0.8 mL (A-to-B) or 0.4 mL (B-to-A), incubation time=90 minutes.

[1] = Caco-2 cell transmembrane transport experiment; settings: human; for Papp B→A at 90 min, 10 μM: basolateral to apical
From the text: as §3, §4, §5

mouse tumors = settings: mouse experiments, alone or combined; cited from earlier work
[2] = tested on: MIA Paca2 T2 xenograft tumor; assay: MIA Paca2 T2 human pancreatic cancer xenograft mouse subcutaneous model; settings: for effect on tumor (in words): 28 days oral, 73-1 50 mg/kg bid, AMG510 100 mg/kg qd
Procedure: MIAPaca2 cells were cultured to sufficient numbers in DMEM containing 10% fetal bovine serum and 2.5% horse serum, then harvested. 5 million cells suspended in 0.1 mL of serum-free medium and Matrigel (1:1, v/v) were injected subcutaneously into the right flank area of each mouse, carefully avoiding blood vessels and serially passaged 2 times in animals. The size of the tumor was measured using a vernier caliper, and the method for calculating the tumor volume and T/C value was the same as above. […] The compounds were respectively dissolved in 30% sulfobutyl-β-cyclodextrin (SBE-β-CD) and 1.5 equivalent of 1 M HCl (pH 4-5) at the corresponding concentrations. 10 mL/kg was orally administered continuously by gavage for 28 days.

[3] = tested on: non-small cell lung cancer (NSCLC); settings: cited from earlier work
H358 xenograft tumor [4] = assay: H358 human non-small cell lung cancer subcutaneous mouse xenograft model, anticancer activity; assay type: in vivo, BALB/c nude mice; settings: 100 mg/kg, po, qd, 26 days
Procedure: (§1) In this experiment, the anticancer activities of compounds 73-1 and 90-1 in the subcutaneous tumor model of H358 human non-small cell lung cancer xenograft mice, and the dose-response relationship of compound 73-1 in inhibiting the growth of H358 xenograft tumors were investigated. […] When H358 cells were cultured to a sufficient number, cells were collected. […] Vernier calipers were used to measure the size of the tumor. The formula for calculating the tumor volume is: tumor volume=(length×width^2)/2, and the formula for calculating the relative tumor proliferation rate T/C value is: T/C (%)=100×ΔT/ΔC (ΔT>0) or T/T (%)=100×ΔT/T0 (ΔT<0). ΔT is the difference of tumor volume in the treatment group, ΔC is the difference of tumor volume in the vehicle control group, and T0 is the tumor volume in the treatment group before administration.
The dosage of the all groups, except the vehicle control group, was 100 mg/kg, 10 mL/kg orally administered by gavage, once a day. […] All the groups were administered continuously for 26 days.

[5] = Pharmacokinetic (PK) experiment in rats by gavage; assay type: in vivo; settings: rat, plasma, po, male SD rats, 20 mg/kg; for AUC(0-t): read-out: AUC0-24
KRAS-G12C/SOS1 = target: T1, KRAS-G12C/SOS1 (Homo sapiens, UniProt P01116, G12C); assay: HTRF KRAS-G12C/SOS1 binding assay; settings: 2 hours room temperature
T1 construct: purchased Cisbio #63ADK000CB16PEG
Procedure: 2) Diluted the compound to be tested with diluent into 10× stock solution, starting from a concentration of 10000 nM, diluting in 4-fold gradient and a total of 6 concentration gradients.
After incubated at room temperature for 15 minutes, added pre-mixed 5 uL of anti-Tag1-Tb^3+ and 5 uL of anti-Tag2-XL665. Sealed the plate and incubated at room temperature for 2 hours.
Data were processed by using Graphpad prism software.

H23 (KRAS G12C) = assay: Tumor cell proliferation inhibition assay (CellTiter-Glo), H23; assay type: cell-based, Human; settings: Homo sapiens, 72 h, 10% fetal bovine serum
Summary of the method: (§2)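 Growth was read as ATP by CellTiter-Glo luminescence, with inhibition normalised to DMSO (max) and medium-only (min) wells. IC50 came from sigmoidal dose-response fits.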

MIA-Paca2 (KRAS G12C) = assay: Tumor cell proliferation inhibition assay (CellTiter-Glo), MIA-Paca2; assay type: cell-based, Human; settings: 72 hours, 10% fetal bovine serum
Summary of the method: as §2

H358 xenograft tumor [6] = assay: H358 xenograft model, dose-response of compound 73-1; assay type: in vivo, BALB/c nude mice; settings: po, qd, 28 days
Procedure: as §1
In the dose-response study of compound 73-1 inhibiting the growth of H358 xenograft tumors, when the H358 tumor volume reached an average of about 183 mm^3, the animals were respectively divided into different treatment groups, including vehicle (30% sulfobutyl-β-Cyclodextrin) control group, compound 73-1 orally administered group with doses of 12.5 mg/kg, 25 mg/kg, 50 mg/kg, and 100 mg/kg (n=8/group), administered once every day. […] All the groups were administered continuously for 28 days with 10 mL/kg oral administration.

H358 (KRAS G12C) = assay: Tumor cell proliferation inhibition assay (CellTiter-Glo), H358; assay type: cell-based, Human; settings: Homo sapiens, NCI-H358, 72 h, 10% fetal bovine serum
Summary of the method: as §2

[7] = Caco-2, pH 7.4, Papp A-B Sample_01, 10 μM, pH 7.4, 37° C., 90 min, apical to basolateral
[8] = Caco-2, pH 7.4, Papp A-B Sample_02, 10 μM, pH 7.4, 37° C., 90 min, apical to basolateral
[9] = Caco-2, pH 7.4, Papp A-B mean value, 10 μM, pH 7.4, 37° C., 90 min, apical to basolateral
[10] = Caco-2, pH 7.4, Papp B-A Sample_01, 10 μM, pH 7.4, 37° C., 90 min
[11] = Caco-2, pH 7.4, Papp B-A Sample_02, 10 μM, pH 7.4, 37° C., 90 min
[12] = Caco-2, pH 7.4, Papp B-A mean value, 10 μM, pH 7.4, 37° C., 90 min
[13] = 13 evaluable patients, highest dose of 960 mg

T1 sequence (P01116 1-188 isoform P01116-2 G12C): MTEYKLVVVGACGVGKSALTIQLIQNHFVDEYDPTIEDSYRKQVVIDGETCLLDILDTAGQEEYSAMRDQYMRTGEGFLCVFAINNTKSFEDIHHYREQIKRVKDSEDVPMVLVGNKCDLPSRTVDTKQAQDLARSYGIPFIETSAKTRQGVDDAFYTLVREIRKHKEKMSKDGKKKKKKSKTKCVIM

Molecule	Papp A→B at 90 min, 10 μM [1, 7] [×10⁻⁶ cm/s]	Papp A→B at 90 min, 10 μM [1, 8] [×10⁻⁶ cm/s]	Papp A→B at 90 min, 10 μM [1, 9] [×10⁻⁶ cm/s]	Papp B→A at 90 min, 10 μM [1, 10] [×10⁻⁶ cm/s]	Papp B→A at 90 min, 10 μM [1, 11] [×10⁻⁶ cm/s]	Papp B→A at 90 min, 10 μM [1, 12] [×10⁻⁶ cm/s]	mice whose tumor completely disappeared (mouse tumors) [%]	effect on tumor (in words) [2]	Changes of body weight (%) (H358 xenograft tumor [4])	effect on tumor (in words) (H358 xenograft tumor [4])	tumor suppressor T/C value (%) (H358 xenograft tumor [4])	AUC(0-inf) [5] [ng·h/mL]	Cmax [5] [ng/mL]	Tmax [5] [h]	half-life [5] [h]	AUC(0-t) [5] [ng·h/mL]	further results
C=CC(=O)N1CCN(c2nc(=O)n(-c3c(C)ccnc3C(C)C)c3nc(-c4c(O)cccc4F)c(F)cc23)[C@@H](C)C1 (atropisomer, axis not shown) [AMG510, reference compound]	5.83	4.94	5.39	27.9	39.1	33.5	10	shrink the tumor	16.4	shrink the tumor	−93.8	3430	3250	0.33	6.76	3370	efflux rate Papp(B-A)/Papp(A-B) (Caco-2 cell): 6.22; Changes of body weight (%) ([2]; 100 mg/kg, po, qd, 28 days): 13.8%; DCR [3, 13]: 100%; ORR [3, 13]: 54%; partial response (PR) [3, 13]: 54%; disease control rate (DCR) ([3]; 23 evaluable NSCLC patients): 96%; objective response rate (ORR) ([3]; 23 evaluable NSCLC patients): 48%; partial response (PR) ([3]; 23 evaluable NSCLC patients): 48%; progressive disease (PD) ([3]; 23 evaluable NSCLC patients): 4%; dose-limiting toxicity and adverse reactions above grade IV ([3]; phase I patients): No dose-limiting toxicity (DLT) and drug-related adverse reactions above grade IV were found; tolerability (in words) ([3]; phase I patients): well tolerated
C=CC(=O)N1CCN(c2nc(=O)n(-c3c(C)ccnc3C(C)C)c3nc(-c4c(F)ccc5ccoc45)c(Cl)cc23)[C@@H](C)C1 (single isomer, unassigned) [Compound 73-1]	16	20.8	18.4	17.2	24	20.6	–	cause the tumor to disappear completely	10.1	cause the tumor to disappear completely	−100.0	4320	1750	0.67	3.23	4300	IC50 (KRAS-G12C/SOS1): < 50 nM; efflux ratio at 90 min, 10 μM ([1]; Caco-2, pH 7.4): 1.12; Papp A→B at 90 min, 10 μM ([1]; Caco-2, pH 7.4, apparent permeability coefficient Papp A-B, Caco-2): > 10 ×10⁻⁶ cm/s; IC50 (H23 (KRAS G12C)): < 10 nM; Antitumor activity T/C value (%) ([2]; 50 mg/kg, po, bid, 28 days): −100%; Changes of body weight (%) ([2]; 50 mg/kg, po, bid, 28 days): 10.2%; IC50 (MIA-Paca2 (KRAS G12C)): < 10 nM; Antitumor activity T/C value (%) (H358 xenograft tumor [6]; 12.5 mg/kg): −68.5%; Changes of body weight (%) (H358 xenograft tumor [6]; 12.5 mg/kg): −0.2%; Antitumor activity T/C value (%) (H358 xenograft tumor [6]; 25 mg/kg): −74.0%; Changes of body weight (%) (H358 xenograft tumor [6]; 25 mg/kg): −0.1%; Antitumor activity T/C value (%) (H358 xenograft tumor [6]; 50 mg/kg): −93.5%; Changes of body weight (%) (H358 xenograft tumor [6]; 50 mg/kg): 2.2%; Antitumor activity T/C value (%) (H358 xenograft tumor [6]; 100 mg/kg): −96.6%; Changes of body weight (%) (H358 xenograft tumor [6]; 100 mg/kg): 1.9%; clinical symptoms and body weight (in words) (H358 xenograft tumor [6]; 12.5, 25, 50 and 100 mg/kg, versus vehicle control): no significant clinical symptoms and no significant changes in body weight; effect on tumor growth (in words) (H358 xenograft tumor [6]; 12.5-100 mg/kg): inhibited the growth of H358 tumor in a dose-dependent manner and could cause partial disappearance of tumor; tolerability (in words) (H358 xenograft tumor [6]; 12.5-100 mg/kg): well tolerated; IC50 (H358 (KRAS G12C)): < 10 nM
pembrolizumab: PD-1 antibody	–	–	–	–	–	–	10	–	–	–	–	–	–	–	–	–	–
